Data as given in PubChem BioAssay AID1919014 (Molecular Pharmacology Branch, DTP, NCI, 2023).

Tested on: NCI-H1341 complex spheroids, percent test/control
Test: Anticancer human tumor NCI-H1341 cell line growth inhibition [AhR];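 also: spheroids exposed to agents for seven days before readout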
Conditions: for IC50: curve of first compound; for viability, T/C: stronger effect = lower value
Method in brief: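 Complex tumor spheroids co-cultured with HUVEC and human MSC stroma; AhR antagonists tested in combination with standard-of-care and investigational agents. Top concentration at or near clinical Cmax (else 10 microM), half-log dilutions; growth expressed as percent test/control.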

[1] = second compound 0.1 µM, first compound 0.0316 µM
[2] = second compound 0.1 µM, first compound 0.1 µM
[3] = second compound 0.1 µM, first compound 0.316 µM
[4] = second compound 0.1 µM, first compound 1 µM
[5] = second compound 0.1 µM, first compound 3.16 µM
[6] = second compound 0.1 µM, first compound 10 µM
[7] = second compound 0.316 µM, first compound 0.0316 µM
[8] = second compound 0.316 µM, first compound 0.1 µM
[9] = second compound 0.316 µM, first compound 0.316 µM
[10] = second compound 0.316 µM, first compound 1 µM
[11] = second compound 0.316 µM, first compound 3.16 µM
[12] = second compound 0.316 µM, first compound 10 µM
[13] = second compound 1 µM, first compound 0.0316 µM
[14] = second compound 1 µM, first compound 0.1 µM
[15] = second compound 1 µM, first compound 0.316 µM
[16] = second compound 1 µM, first compound 1 µM
[17] = second compound 1 µM, first compound 3.16 µM
[18] = second compound 1 µM, first compound 10 µM
[19] = second compound 3.16 µM, first compound 0.0316 µM
[20] = second compound 3.16 µM, first compound 0.1 µM
[21] = second compound 3.16 µM, first compound 0.316 µM
[22] = second compound 3.16 µM, first compound 1 µM
[23] = second compound 3.16 µM, first compound 3.16 µM
[24] = second compound 3.16 µM, first compound 10 µM
[25] = second compound 10 µM, first compound 0.0316 µM
[26] = second compound 10 µM, first compound 0.1 µM
[27] = second compound 10 µM, first compound 0.316 µM
[28] = second compound 10 µM, first compound 1 µM
[29] = second compound 10 µM, first compound 3.16 µM
[30] = second compound 10 µM, first compound 10 µM

**Q.** `COc1cc(Nc2ncc3c(n2)-c2ccc(Cl)cc2C(c2c(F)cccc2OC)=NC3)ccc1C(=O)O` + CC(CO)NC(=O)c1cc(-c2ccc(Cl)cc2)nn(-c2cnn(C)c2)c1=O was tested. Which IC50 (second compound 0.1 µM) did it give?
**A.** < 31.6 nM

**Q.** What about the IC50 (second compound 0.316 µM) of the same compound?
**A.** < 31.6 nM

**Q.** And the IC50 (second compound 1 µM)?
**A.** < 31.6 nM

**Q.** And the IC50 (second compound 3.16 µM)?
**A.** < 31.6 nM

**Q.** And the IC50 (second compound 10 µM)?
**A.** < 31.6 nM

**Q.** What about the viability, T/C [1] of the same compound?
**A.** 39.7%

**Q.** What about the viability, T/C [2] of the same compound?
**A.** 45.7%

**Q.** What about the viability, T/C [3] of the same compound?
**A.** 37.7%

**Q.** What about the viability, T/C [4] of the same compound?
**A.** 34.2%

**Q.** And the viability, T/C [5]?
**A.** 28.7%

**Q.** And the viability, T/C [6]?
**A.** 28.6%

**Q.** What about the viability, T/C [7] of the same compound?
**A.** 50.5%

**Q.** What about the viability, T/C [8] of the same compound?
**A.** 34.5%

**Q.** And the viability, T/C [9]?
**A.** 35.5%

**Q.** What about the viability, T/C [10] of the same compound?
**A.** 38.2%

**Q.** What about the viability, T/C [11] of the same compound?
**A.** 29.5%

**Q.** And the viability, T/C [12]?
**A.** 27.6%

**Q.** And the viability, T/C [13]?
**A.** 46.4%

**Q.** What about the viability, T/C [14] of the same compound?
**A.** 44.2%

**Q.** And the viability, T/C [15]?
**A.** 37.2%

**Q.** What about the viability, T/C [16] of the same compound?
**A.** 37.5%

**Q.** And the viability, T/C [17]?
**A.** 33.1%

**Q.** And the viability, T/C [18]?
**A.** 26.7%

**Q.** And the viability, T/C [19]?
**A.** 38.4%

**Q.** What about the viability, T/C [20] of the same compound?
**A.** 35.4%

**Q.** And the viability, T/C [21]?
**A.** 34%

**Q.** And the viability, T/C [22]?
**A.** 35.8%

**Q.** What about the viability, T/C [23] of the same compound?
**A.** 30.6%

**Q.** What about the viability, T/C [24] of the same compound?
**A.** 27.6%

**Q.** And the viability, T/C [25]?
**A.** 35.6%

**Q.** And the viability, T/C [26]?
**A.** 39.7%

**Q.** And the viability, T/C [27]?
**A.** 39%

**Q.** And the viability, T/C [28]?
**A.** 29.2%

**Q.** What about the viability, T/C [29] of the same compound?
**A.** 27%

**Q.** And the viability, T/C [30]?
**A.** 28.2%

**Q.** How did the IC50 (second compound 0.1 µM) turn out when `Nc1ncn(C2CC(O)C(CO)S2)c(=O)n1` (stereo not given) + CC(CO)NC(=O)c1cc(-c2ccc(Cl)cc2)nn(-c2cnn(C)c2)c1=O was run?
**A.** 271 nM

**Q.** And the IC50 (second compound 0.316 µM)?
**A.** 220 nM

**Q.** What about the IC50 (second compound 1 µM) of the same compound?
**A.** 223 nM

**Q.** And the IC50 (second compound 3.16 µM)?
**A.** 214 nM

**Q.** And the IC50 (second compound 10 µM)?
**A.** 234 nM

**Q.** And the viability, T/C (second compound 0.1 µM, first compound 0.000949 µM)?
**A.** 89.1%

**Q.** What about the viability, T/C (second compound 0.1 µM, first compound 0.003 µM) of the same compound?
**A.** 94.3%

**Q.** What about the viability, T/C (second compound 0.1 µM, first compound 0.00949 µM) of the same compound?
**A.** 91.2%

**Q.** And the viability, T/C (second compound 0.1 µM, first compound 0.03 µM)?
**A.** 89.3%

**Q.** What about the viability, T/C (second compound 0.1 µM, first compound 0.0949 µM) of the same compound?
**A.** 63.6%

**Q.** And the viability, T/C (second compound 0.1 µM, first compound 0.3 µM)?
**A.** 48.7%

**Q.** And the viability, T/C (second compound 0.316 µM, first compound 0.000949 µM)?
**A.** 94.6%

**Q.** What about the viability, T/C (second compound 0.316 µM, first compound 0.003 µM) of the same compound?
**A.** 91.5%

**Q.** And the viability, T/C (second compound 0.316 µM, first compound 0.00949 µM)?
**A.** 84.5%

**Q.** And the viability, T/C (second compound 0.316 µM, first compound 0.03 µM)?
**A.** 89.8%

**Q.** And the viability, T/C (second compound 0.316 µM, first compound 0.0949 µM)?
**A.** 78.3%

**Q.** What about the viability, T/C (second compound 0.316 µM, first compound 0.3 µM) of the same compound?
**A.** 39.2%

**Q.** And the viability, T/C (second compound 1 µM, first compound 0.000949 µM)?
**A.** 75.3%

**Q.** And the viability, T/C (second compound 1 µM, first compound 0.003 µM)?
**A.** 105%

**Q.** What about the viability, T/C (second compound 1 µM, first compound 0.00949 µM) of the same compound?
**A.** 91.8%

**Q.** And the viability, T/C (second compound 1 µM, first compound 0.03 µM)?
**A.** 79.6%

**Q.** And the viability, T/C (second compound 1 µM, first compound 0.0949 µM)?
**A.** 76.2%

**Q.** And the viability, T/C (second compound 1 µM, first compound 0.3 µM)?
**A.** 41.3%

**Q.** And the viability, T/C (second compound 3.16 µM, first compound 0.000949 µM)?
**A.** 86%

**Q.** And the viability, T/C (second compound 3.16 µM, first compound 0.003 µM)?
**A.** 96.1%

**Q.** And the viability, T/C (second compound 3.16 µM, first compound 0.00949 µM)?
**A.** 85.6%

**Q.** And the viability, T/C (second compound 3.16 µM, first compound 0.03 µM)?
**A.** 82.7%

**Q.** And the viability, T/C (second compound 3.16 µM, first compound 0.0949 µM)?
**A.** 69.2%

**Q.** And the viability, T/C (second compound 3.16 µM, first compound 0.3 µM)?
**A.** 42%

**Q.** And the viability, T/C (second compound 10 µM, first compound 0.000949 µM)?
**A.** 73.3%

**Q.** What about the viability, T/C (second compound 10 µM, first compound 0.003 µM) of the same compound?
**A.** 73.1%

**Q.** And the viability, T/C (second compound 10 µM, first compound 0.00949 µM)?
**A.** 79.1%

**Q.** What about the viability, T/C (second compound 10 µM, first compound 0.03 µM) of the same compound?
**A.** 69.2%

**Q.** And the viability, T/C (second compound 10 µM, first compound 0.0949 µM)?
**A.** 63.6%

**Q.** And the viability, T/C (second compound 10 µM, first compound 0.3 µM)?
**A.** 46%

**Q.** With `NS(=O)(=O)OCC1CC(n2ccc3c(NC4CCc5ccccc54)ncnc32)CC1O` (stereo not given) + Cc1cncc(-c2nc(NCCc3c[nH]c4ccccc34)c3ncn(C(C)C)c3n2)c1 as the compound, how does the IC50 (second compound 0.1 µM) read?
**A.** 108 nM

**Q.** And the IC50 (second compound 0.316 µM)?
**A.** 83.3 nM

**Q.** What about the IC50 (second compound 1 µM) of the same compound?
**A.** < 31.6 nM

**Q.** What about the IC50 (second compound 3.16 µM) of the same compound?
**A.** < 31.6 nM

**Q.** What about the IC50 (second compound 10 µM) of the same compound?
**A.** < 31.6 nM

**Q.** What about the viability, T/C [1] of the same compound?
**A.** 50.1%

**Q.** And the viability, T/C [2]?
**A.** 52.7%

**Q.** And the viability, T/C [3]?
**A.** 33.8%

**Q.** What about the viability, T/C [4] of the same compound?
**A.** 15.5%

**Q.** And the viability, T/C [5]?
**A.** 14%

**Q.** What about the viability, T/C [6] of the same compound?
**A.** 12.5%

**Q.** What about the viability, T/C [7] of the same compound?
**A.** 54.4%

**Q.** And the viability, T/C [8]?
**A.** 48.5%

**Q.** What about the viability, T/C [9] of the same compound?
**A.** 34.8%

**Q.** What about the viability, T/C [10] of the same compound?
**A.** 17.6%

**Q.** And the viability, T/C [11]?
**A.** 16.8%

**Q.** And the viability, T/C [12]?
**A.** 12.4%

**Q.** What about the viability, T/C [13] of the same compound?
**A.** 42%

**Q.** What about the viability, T/C [14] of the same compound?
**A.** 43.6%

**Q.** What about the viability, T/C [15] of the same compound?
**A.** 35.5%

**Q.** What about the viability, T/C [16] of the same compound?
**A.** 18.4%

**Q.** And the viability, T/C [17]?
**A.** 15.7%

**Q.** What about the viability, T/C [18] of the same compound?
**A.** 15.8%

**Q.** What about the viability, T/C [19] of the same compound?
**A.** 49.4%

**Q.** What about the viability, T/C [20] of the same compound?
**A.** 41.6%

**Q.** And the viability, T/C [21]?
**A.** 41.4%

**Q.** What about the viability, T/C [22] of the same compound?
**A.** 27.6%

**Q.** And the viability, T/C [23]?
**A.** 19.5%

**Q.** And the viability, T/C [24]?
**A.** 17%

**Q.** And the viability, T/C [25]?
**A.** 26.4%

**Q.** And the viability, T/C [26]?
**A.** 31.7%

**Q.** What about the viability, T/C [27] of the same compound?
**A.** 29.9%

**Q.** And the viability, T/C [28]?
**A.** 25.2%

**Q.** And the viability, T/C [29]?
**A.** 21.4%

**Q.** And the viability, T/C [30]?
**A.** 20.1%
